This is an account of results in patent publication US20240208998A1, “COMPOUNDS FOR USE IN THE TREATMENT OF HYPERPROLIFERATIVE DISORDERS” (FUNDACIÓ PRIVADA INSTITUT D'INVESTIGACIÓ ONCOLÓGICA DE VALL …, priority 2021, published 2024).

Molecules are shown by their SMILES.

One data set addresses human TET2 construct (Homo sapiens, UniProt Q6N021, A1837G/A1840G/D1704G/D1842G/DEL1471-1702/DEL1708-1833/E1841G/F1706G/N1843S/Q1834G/V1836G). Put plainly: Determination of TET2 binding by Surface Plasmon Resonance. To be noted: SPR, Biacore T200, 25° C., steady state fit to single site interaction model. The procedure: The human methylcytosine dioxygenase TET2 construct used (1129-2002 with residues 1471-1843 replaced by a 15-residue GS-linker) was expressed in a pET-28a(+)psumo vector with kanamycin resistance and an N-terminal His6 tag, and cloned in Rosetta D3 Escherichia coli competent cells. Transformed cells were cultured overnight in 10 mL of LB media supplied with kanamycin (50 μg/mL), then scaled to 1 L LB medium supplied with kanamycin (50 μg/mL) and grown at 37° C. Once the optical density (OD600) achieved 0.8, protein expression was induced with 0.4 mM isopropyl-β-thiogalactopyranoside (IPTG) overnight at 18° C. Cells were harvested by centrifugation (8,000 rpm, 4° C., 30 min) and the pellet obtained was resuspended in 15 mL of buffer A (50 mM Hepes, 150 mM NaCl, 30 mM imidazole, 2 mM β-mercaptoethanol (pH 8.0) supplemented with Pierce protease inhibitor cocktail (ThermoFisher Scientific)) and lysed by sonication (1 min 40 s: 10 cycles×10 s ON, 30 s OFF, A=35%, T=19° C.) followed by two consecutive centrifugations (8,000 rpm, 4° C., 30 min) to clarify the lysate.
The TET2 protein was purified using an AKTA Start system (GE Healthcare, Uppsala, Sweden) by two-step purification procedure: one His-affinity chromatography followed by a size exclusion chromatography. First, the protein fraction obtained during the lysis (supernatant) was applied to a 5 mL HisTrap HP column (GE Healthcare), washed with buffer A (50 mM Hepes, 150 mM NaCl, 30 mM imidazole, 2 mM […] (pH 8.0)) and the bound protein was eluted with buffer B (50 mM Hepes, 150 mM NaCl, 250 mM imidazole, 2 mM β-mercaptoethanol (pH 8.0)). The eluted protein-containing fractions were pooled and concentrated up to 4 mL for the last purification step: a size exclusion chromatography (HiPrep 16/60 Sephacryl S-100 HR) in 50 mM Hepes, 150 mM NaCl, 2 mM β-mercaptoethanol (pH 8.0). Finally, the mass and purity of the protein were verified by SDS-electrophoresis and mass spectrometry.
The binding of compounds of the examples was determined by Surface Plasmon Resonance (SPR) using a Biacore T200 SPR biosensor instrument (GE Healthcare, Uppsala, Sweden) at 25° C. The human TET2 construct was immobilized on a CM5 sensor chip using a standard covalent immobilization via amine coupling following the activation of the carboxymethyl dextran matrix of the sensor chip (injection of a solution containing 0.1 M N-hydroxysuccinimide and 0.4 M 1-ethyl-3-[3-(dimethylamino)propyl]carbodiimide hydrochloride at a flow rate of 15 μL/min for 7 min). The protein immobilization was achieved after the injection of 5 μg/mL TET2 in 10 mM sodium acetate (pH 4.0) at a flow rate of 5 μL/min. Unreacted activated groups of the dextran matrix were deactivated by injection of 1 M ethanolamine hydrochloride for 7 min at a flow rate of 15 μL/min. The corresponding matrix activation and protein immobilization were performed using as a running buffer a phosphate buffered saline solution (1.05× PBS: 10 mM phosphate, pH 7.4, 150 mM NaCl). The screened compounds were prepared in a 20 mM stock solution in DMSO and diluted with 1.05× PBS to achieve a final 5% (v/v) DMSO concentration. The running buffer of the interaction assays consisted of 1×PBS, 5% (v/v) DMSO. The flow rate used for the screening was 60 μL/min and the ligand association and dissociation times set were 60 s and 120 s, respectively.
For data analysis the software used was the Biacore T200 Evaluation software. Different corrections were applied. First, the nonspecific binding to the chip surface and the baseline drift were corrected subtracting the signals of a reference surface (where the immobilization procedure was carried out without proteins) to the signals obtained on the TET2 surface. Second, a series of solvent standards (solvent correction) were introduced to remove the differences derived from the DMSO. Finally, the background was corrected subtracting blank injections (blank subtraction) to the injected compound signals.
A general note: SPR reads the build-up and loss of mass on a sensor chip optically.

The next data set has as its system HL60 cell line. Put plainly: Antiproliferative activity on HL60 cell line (CellTiter-Glo). Conditions: Homo sapiens, HL-60; HL60, 72 h of treatment. The data set is classed as cell-based. As to the method:
The human leukaemic cell line HL60 was grown in suspension in RPMI 1640 medium containing 10% (v/v) FBS and 1% (v/v) P/S (Life Technologies). […] Leukaemia cells were suspended at a density of 2×10^5 cells/mL in complete RPMI 1640 medium and 25 μL were seeded in each well (5×10^3 final total cells/well). A 10 μM solution of the compounds of examples 1, 12 and 21, and a 25 μM solution of all other compounds were prepared in complete medium, and then serially diluted (1:2) (as specified in Table 3 below). A solution of complete medium with DMSO was used as a vehicle control.
Twenty-five microliters of each serially diluted compound solution were added to the corresponding wells of the plate (50 μL of final volume/well). After 48 h of treatment, 50 μL of fresh 2X serially diluted compound solution was added to their corresponding wells (100 μL of final volume/well). After twenty-four additional hours, an equal volume (100 μL) of CellTiter-Glo Reagent (Promega) was added to each well, plates were shaken during 2 min and incubated at rt for 10 min. Luminescence was recorded using a Spark multimode microplate reader and an integration time of 1 s per well.

The next data set deals with A375 (melanoma). The experiment in a line: Antiproliferative activity on other tumour cell lines (CellTiter-Glo): A375. The data set is classed as cell-based. To be noted: Homo sapiens, A-375; A375, 72 h of treatment. The procedure: (§1) Other human adherent cancer cell lines were cultured in their corresponding cell medium (as specified in Table 4) supplemented with 10% FBS (v/v) and 1% P/S (v/v). Twenty-four hours prior to treatment with the compounds to be tested (Examples 1, 12 and 21), the cells were seeded in 96-well plates at different densities depending of the cell line (as specified in Table 4).
(§2) Depending on the cell line, a 50, 125 or 250 μM solution of the compounds of examples 1, 12 and 21 were prepared in complete medium, and then serially diluted (1:2) (Table 5). A solution of complete medium with DMSO was used as a vehicle control.
(§3) Fifty microliters of each serially diluted compound solution was added by medium replacement in two wells (by duplicate). After 48 h of treatment, 50 μL of fresh 2X serially diluted compound solution was added to the corresponding wells of the plate (100 μL of final volume/well). After twenty-four additional hours (a total of 72 h of treatment), an equal volume (100 μL) of CellTiter-Glo Reagent (Promega) was added to each well, plates were shaken during 2 min and incubated at rt for 10 min. Luminescence was recorded using a Spark multimode microplate reader and an integration time of 1 s per well.

Another data set relates to LN229 (glioblastoma). The experiment in a line: Antiproliferative activity on other tumour cell lines (CellTiter-Glo): LN229. The data set is classed as cell-based. To be noted: Homo sapiens, LN-229; LN229, 72 h of treatment. The procedure:
as §1, §2, §3

For a further data set, the system named is T98G (glioblastoma). The experiment in a line: Antiproliferative activity on other tumour cell lines (CellTiter-Glo): T98G. The class given is cell-based. To be noted: Homo sapiens, 72 h of treatment. As to the method:
as §1, §2, §3
A general note: In ATP-based viability assays light output follows the ATP content of the culture.

The next data set relates to Hop62 (lung). Put plainly: Antiproliferative activity on other tumour cell lines (CellTiter-Glo): Hop62. Conditions: Homo sapiens, HOP-62; Hop62, 72 h of treatment. The class given is cell-based. The procedure: as §1, §2, §3
For a further data set, the system named is MCF7 (breast). Put plainly: Antiproliferative activity on other tumour cell lines (CellTiter-Glo): MCF7. The data set is classed as cell-based. To be noted: Homo sapiens; MCF7, 72 h of treatment. As to the method:
as §1, §2, §3

A further data set deals with MDA-MB-468 (breast). The experiment in a line: Antiproliferative activity on other tumour cell lines (CellTiter-Glo): MDA-MB-468. The data set is classed as cell-based. To be noted: Homo sapiens, MD-MB-468, 72 h of treatment. As to the method: as §1, §2, §3
The test system of the next data set is HCT116 (colon). Put plainly: Antiproliferative activity on other tumour cell lines (CellTiter-Glo): HCT116. The class given is cell-based. To be noted: Homo sapiens; HCT 116, 72 h of treatment. As to the method: as §1, §2, §3

`Cc1[nH]c2ccccc2c1-c1csc(NC(=O)Cc2cn3ccsc3n2)n1` [Example 1, 2-(imidazo[2,1-b]thiazol-6-yl)-N-[4-(2-methyl-1H-indol-3-yl)thiazol-2-yl]acetamide] had a melting point of 210 to 212 °C. The compound also displayed a Kd on human TET2 construct of 16 µM. The compound also registered a concentration for a half-maximal effect (EC50) in the data set with HL60 cell line of 0.113 µM. In the data set on A375 (melanoma), this compound came in with an EC50 of 1.4 µM. The EC50 with LN229 (glioblastoma) is 3.3 µM. This compound showed an EC50 in the data set on T98G (glioblastoma) of 73.7 µM. In addition, in the data set with Hop62 (lung), the EC50 amounted to 40.1 µM. The compound also registered an EC50 with MCF7 (breast) of 14.6 µM. Also, in the data set with MDA-MB-468 (breast), the EC50 is 16 µM. The same compound yielded an EC50 in the data set on HCT116 (colon) of 12.1 µM.
As for `Cc1[nH]c2ccccc2c1-c1csc(NC(=O)Cc2cc3ccccc3o2)n1` [Example 18, 2-(benzofuran-2-yl)-N-[4-(2-methyl-1H-indol-3-yl)thiazol-2-yl]acetamide], the melting point fell in the range of 198 to 200 °C. Further, binding on human TET2 construct was put at a Kd of 5 µM. The same compound showed an EC50 in the data set on HL60 cell line of 7.5 µM.
As to `O=C(Cc1cn2ccsc2n1)Nc1nc(-c2c[nH]c3cccc(Br)c23)cs1` [Example 22, N-[4-(4-bromo-1H-indol-3-yl)thiazol-2-yl]-2-(imidazo[2,1-b]thiazol-6-yl)acetamide], the melting point lay within 233 to 235 °C. Also, the affinity at human TET2 construct, expressed as Kd, was 2 µM. For the same compound, the EC50 in the data set with HL60 cell line amounted to 0.266 µM.
In the same order, the values of `Cc1ccc2[nH]cc(-c3csc(NC(=O)Cc4cn5ccsc5n4)n3)c2c1` [Example 24, 2-(imidazo[2,1-b]thiazol-6-yl)-N-[4-(5-methyl-1H-indol-3-yl)thiazol-2-yl]acetamide] are 160 to 162 °C, 1 µM and 0.912 µM.

The Kd is the concentration at which binding is half-saturated. Low readings indicate higher affinity, high ones lower affinity. A word on the EC50: it is the concentration needed to bring the measured effect to its halfway point. Lower therefore signals an effect from little substance. By melting point is commonly meant the temperature, or range, at which the solid turns liquid.
